Reference: patent publication US20170202936A1, “Identification, Optimization And Use Of Cryptic HLA-B7 Epitopes For Immunotherapy” (VAXON BIOTECH, priority 2006, published 2017)
“Also recorded” adds a separate entry of the source.

What was measured:
HLA-B*0702 = molecular target: T1, HLA-B*0702 (Homo sapiens, UniProt P01889); assay: Measurement of peptide relative affinity to HLA-B*0702 (T2-B7 cells, ME-1 mAb staining); format: binding
T1 construct: expressed in transfected cells; host or cells: human T2 cells transfected with HLA-B*0702 (T2-B7)
Description: The affinity of a peptide for HLA-B*0702 can be determined by methods known in the art, for instance by the assay described by Rohrlich et al., 2003. Results are expressed as relative affinity (RA) when compared to a reference peptide. […] Peptides with RA greater than 10 are therefore considered to be cryptic peptides (or epitopes).
Measurement of Peptide Relative Affinity to HLA-B*0702. The protocol used has been described previously (Rohrlich et al., 2003). Briefly, T2-B7 cells were incubated at 37° C. for 16 hours with peptides concentrations ranging from 100 μM to 0.1 μM, and then stained with ME-1 monoclonal antibody (mAb) to quantify the surface expression of HLA-B*0702. For each peptide concentration, the HLA-B*0702 specific staining was calculated as the percentage of staining obtained with 100 μM of the reference peptide CMV265-274 (R10V; […], SEQ ID NO: 9). The relative affinity (RA) was determined as: RA=(Concentration of each peptide that induces 20% of HLA-B*0702-expression/Concentration of the reference peptide that induces 20% of HLA-B*0702 expression).

[1] = system: HLA-B*0702 transgenic mice; assay: CTL induction in vivo in HLA-B*0702 transgenic mice (immunogenicity, cytotoxic assay on peptide-loaded RMA-B7 targets); design: key to Corresponding native peptide cross-reconnaissance: + for immunogenicity or native peptide cross recognition means that the peptide induced a specific response in at least one HLA-B*0702 transgenic mouse, able to recognized the corresponding native peptide; conditions: for Immunogenicity: specific CTL immune response (in words): HLA-B*0702 transgenic mice
Description: (§1) CTL Induction in vivo in HLA-B*0702 Transgenic Mice. Mice were injected subcutaneously with 100 μg of peptide emulsified in Incomplete Freund's Adjuvant (IFA) in the presence of 150 μg of the I-A^b restricted HBVcore128 T helper epitope ([…], SEQ ID NO: 10). After 11 days, 5×10^7 spleen cells were stimulated in vitro with peptide (10 μM). On day 6 of culture, the bulk responder populations were tested for specific cytotoxicity.
(§2) Cytotoxic assay. Targets were labelled with 100 μCi of Cr^51 for 60 min, plated in 96-well V-bottomed plates (3×10^3 cell/well in 100 μL of RPMI 1640 medium) and, when necessary, pulsed with peptides (1 μM) at 37° C. for 2 hours. Effectors were then added in the wells and incubated at 37° C. for 4 hours. Percentage of specific lysis was determined as: % Lysis=(Experimental Release−Spontaneous Release)/(Maximal Release−Spontaneous Release)×100.
(§3) HLA-B7 transgenic mice were vaccinated with the selected peptides, and eleven days later, their spleen cells were in vitro stimulated with the peptide.

[2] = system: COS-7 cells transfected with HLA-B*0702 and TERT; assay: Peptide processing assay on COS-7 transfected cells (TNFα secretion by murine CTL); format: cell-based, simian; conditions: COS-7 cells transfected with HLA-B*0702 and/or TERT
Description: Peptide Processing Assay on COS-7 Transfected Cells. 2.2×10^4 simian COS-7 cells were plated in flat-bottomed 96-well plates in DMEM+10% FCS, in triplicate for each condition. Eighteen hours later, cells were transfected with 100 ng of each DNA plasmid with DEAE Dextran. After 4 hours, PBS+10% DMSO was added for 2 minutes. Transfected COS cells were incubated in DMEM+10% FCS during 40 hours and then used to stimulate murine CTL in a TNFα secretion assay.
TNFα Secretion Assay. Transfected COS-7 cells at day 4 were suspended in […] of RPMI+10% FCS and used as stimulating cells. 5×10^4 murine T cells were then added in 50 μl RPMI 10% FCS and incubated for 6 hours. Each condition was tested in triplicate. 50 μl of the supernatant was collected to measure TNFα. Standard dilutions were prepared in 50 μl with final doses of TNFα ranging from 104 to 0 pg/ml. On both the supernatants and the standard dilutions, 3×10^4 TNFα sensitive WEHI-164c13 cells in 50 μl were added. They were incubated for 16 h at 37° C. Inhibition of cell proliferation was evaluated by the MTT colorimetric method (Espevik and Nissen-Meyer, 1986).

T2-B7 cells = assay: IFNγ intracellular staining of human CTL stimulated with peptide-loaded T2-B7 cells; format: cell-based; conditions: donor D5609, 4 pools; T2-B7 cells loaded with TERT444 or TERT444A1
Description: Generation of CTL from human PBMC. PBMC were collected by leukapheresis from healthy HLA-B*0702 volunteers. Dendritic cells (DC) were produced from adherent cells cultured for seven days (2×10^6 cells/ml) in the presence of 500 IU/ml GM-CSF and 500 IU/ml IL-4 (R&D Systems, Minneapolis, Minn.) in complete medium (RPMI-1640 supplemented with 10% heat inactivated human AB serum, […] L-Glutamine and antibiotics). On day seven, DC were pulsed with 10 μM peptides for 2 hrs; maturation agents Poly I:C (Sigma, Oakville, Canada) at 100 ng/ml and anti-CD40 mAb (clone G28-5, ATCC, Manassas, Va.) at 2 μg/ml were added in the culture and DCs were incubated at 37° C. overnight or up to 48 hours. Mature DC were then irradiated (3500 rads). CD8+ cells were purified by positive selection with CD8 MicroBeads (Miltenyi Biotec, Auburn, Calif.) according to the manufacturer's instructions. 2×10^5 CD8^+ cells+6×10^4 CD8^− cells were stimulated with 2×10^4 peptide pulsed DC in complete culture medium supplemented with 1000 IU/ml IL-6 and 5 IU/ml IL-12 (R&D Systems, Minneapolis, Minn.) in round-bottomed 96 well plates. From day seven, cultures were weekly restimulated with peptide-loaded DC in the presence of 20 IU/ml IL-2 (Proleukin, Chiron Corp., Emeryville, Calif.) and 10 ng/ml IL-7 (R&D Systems, Minneapolis, Minn.). […]

[3] = system: HLA-B*0702 transgenic mice; assay: CTL induction in vivo in HLA-B*0702 transgenic mice (immunogenicity, cytotoxic assay on peptide-loaded RMA-B7 targets); design: key: +: means that a specific immunoresponse was generated at least one HLA-B*0702 transgenic mice; conditions: Table IV
Description: as §1, §2, §3

[4] = system: HLA-B*0702 transgenic mice; assay: as above; design: key: + for immunogenicity or native peptide cross recognition means that the peptide induced a specific response in at least one HLA-B*0702 transgenic mouse, able to recognized the corresponding native peptide; conditions: Table V
Description: as §1, §2, §3

RMA-B7 targets = assay: Lysis of RMA-B7 targets loaded with decreasing peptide concentrations by murine CTL; format: cell-based; conditions: CTL from mice immunized with TERT444A1, restimulated in vitro with native TERT444, read-out: Half maximal lysis of peptide loaded targets
Description: as §1, §2

Row | Sequence | Affinity for HLA-B*0702 (in words) (HLA-B*0702) | RA (HLA-B*0702; class symbols, Table IV) | Corresponding native peptide cross-reconnaissance ([1]; CTL induced in HLA-B*0702 transgenic mice) | Immunogenicity: specific CTL immune response (in words) [1] | Recognition of endogenous TERT by peptide-induced murine CTL [2] | Intracellular IFNg production by human CTL (T2-B7 cells) | Immunogenicity [3] | Immunogenicity [4] | RA (relative affinity for HLA-B*0702) (HLA-B*0702; T2-B7 cells, 16 hours 37° C., ratio of concentrations inducing 20% HLA-B*0702 expression vs reference peptide CMV265-274) | EC50 (RMA-B7 targets) [nM]
1 | APRRLVQLL [TERT444A1] | strong affinity | + (+ = 1 < RA < 10) | + | induced an immune response in the majority of vaccinated mice | recognized COS-7 cells transfected with both HLA-B*0702 and TERT but not COS-7 cells transfected with either HLA-B*0702 or TERT | IFNg producing CTL were detected in pools 2 and 4 | + | + |  | 
2 | DPRRLVQLL [TERT444] | low affinity |  |  | Only the high affinity TERT4 was immunogenic; also recorded: not immunogenic |  |  |  |  | >10 | 5.5
